One experiment concerns OCI-Ly3 cells. Description: 4-day proliferation assay, OCI-Ly3. It is filed as cell-based, human. As to conditions: Homo sapiens, 96 h, 4 days incubation, CellTiterGLO, read-out: Anti-proliferation: OCI-LY-3 IC50. The gist of the method: (§1)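 Each line was plated at 10,000 cells per well for linear growth, with no beta-mercaptoethanol during the assay. OCI-Ly3 cells were below passage 10.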

For experiment [1], the target named is full-length MALT1 protein (Strep-MALT1(1-824)-His) (Homo sapiens (Human), UniProt Q9UDY8). Description: MALT1 Biochemical Protease Assay (Ac-LRSR-AMC substrate). As to conditions: 10 nM FL MALT1, 200 μM Ac-LRSR-AMC, 4 h at RT; read-out: MALT1_Biochemical activity (Ac-LRSR-amc) IC50. A digest of the protocol: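 Fluorescence from AMC release off the quenched LRSR substrate was read after a 4 h reaction at RT. Values were normalised to no-enzyme and uninhibited controls and fitted for IC50 and Hill coefficient.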

Experiment [2] relates to IL10 secretion by OCI-LY3 ABC-DLBCL cells. Description: Human IL10 Mesoscale assay (OCI-LY3). It is filed as cell-based. As to conditions: Homo sapiens, 24 h. A digest of the protocol:
(§2)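 Compounds tested from 15 μM to 58.6 nM (twofold, 9 concentrations) on 100,000 cells per well over 24 h at 37° C, without beta-mercaptoethanol. Secreted cytokine in supernatant detected by MSD electrochemiluminescence; scaling used DMSO as maximum and RN486 as full inhibition.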

Experiment [3] relates to IL6 secretion by OCI-LY3 ABC-DLBCL cells. The experiment is described as follows: Human IL6 Mesoscale assay (OCI-LY3). The format is cell-based. As to conditions: Homo sapiens, 24 h. A digest of the protocol: as §2
The next experiment relates to TMD8 cells. The experiment is described as follows: 4-day proliferation assay, TMD8. It is filed as cell-based. As to conditions: Homo sapiens, 96 h, 4 days incubation, CellTiterGLO, read-out: Anti-proliferation: TMD-8 IC50. A digest of the protocol: as §1

Sequence of full-length MALT1 protein (Strep-MALT1(1-824)-His) (Q9UDY8 whole entry): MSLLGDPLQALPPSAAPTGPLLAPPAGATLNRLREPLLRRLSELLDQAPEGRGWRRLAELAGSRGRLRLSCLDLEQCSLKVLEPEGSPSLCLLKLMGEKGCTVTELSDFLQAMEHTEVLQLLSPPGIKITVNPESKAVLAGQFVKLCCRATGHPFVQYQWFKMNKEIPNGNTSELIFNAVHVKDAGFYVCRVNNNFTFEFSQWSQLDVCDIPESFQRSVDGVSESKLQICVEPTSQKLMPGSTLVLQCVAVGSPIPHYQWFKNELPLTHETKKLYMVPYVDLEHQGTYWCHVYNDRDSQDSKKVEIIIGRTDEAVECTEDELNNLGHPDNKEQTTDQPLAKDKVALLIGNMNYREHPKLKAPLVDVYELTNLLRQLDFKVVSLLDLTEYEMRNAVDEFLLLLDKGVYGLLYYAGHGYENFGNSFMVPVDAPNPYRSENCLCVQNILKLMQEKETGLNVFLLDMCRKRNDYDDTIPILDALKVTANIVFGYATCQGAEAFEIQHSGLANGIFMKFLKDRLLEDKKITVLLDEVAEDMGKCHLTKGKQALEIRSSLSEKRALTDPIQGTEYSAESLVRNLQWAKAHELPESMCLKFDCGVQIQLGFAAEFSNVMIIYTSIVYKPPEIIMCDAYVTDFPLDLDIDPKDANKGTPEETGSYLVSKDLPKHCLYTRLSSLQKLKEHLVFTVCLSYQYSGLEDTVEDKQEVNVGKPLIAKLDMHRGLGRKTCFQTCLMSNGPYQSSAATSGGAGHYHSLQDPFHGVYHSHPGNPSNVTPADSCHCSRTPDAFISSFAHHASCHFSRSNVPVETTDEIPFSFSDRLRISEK

As to `N#Cc1cc(NC(=O)c2cnn(-c3cncc4c(F)cccc34)c2C(F)(F)F)cnc1-n1nccn1` [Cpd 118, N-(5-cyano-6-(2H-1,2,3-triazol-2-yl)pyridin-3-yl)-1-(8-fluoroisoquinolin-4-yl)-5-(trifluoromethyl)-1H-pyrazole-4-carboxamide], the IC50 stood at 158 nM with OCI-Ly3 cells; 15 nM in experiment [1]; 12 nM in experiment [2]; 17 nM in experiment [3]; 832 nM in the experiment on TMD8 cells.

For `N#Cc1cc(NC(=O)c2cnn(-c3cccc4nnsc34)c2C(F)(F)F)cnc1-n1nccn1` [Cpd 119, 1-(benzo[d][1,2,3]thiadiazol-7-yl)-N-(5-cyano-6-(2H-1,2,3-triazol-2-yl)pyridin-3-yl)-5-(trifluoromethyl)-1H-pyrazole-4-carboxamide], the IC50 was 193 nM with OCI-Ly3 cells; 13 nM in experiment [1]; 40 nM in experiment [2]; 72 nM in experiment [3]; 355 nM with TMD8 cells.

Turning to `Cc1nc(-n2nccn2)c(Cl)cc1NC(=O)c1cnn(-c2cccc3nnsc23)c1C(F)(F)F` [Cpd 121, 1-(benzo[d][1,2,3]thiadiazol-7-yl)-N-(5-chloro-2-methyl-6-(2H-1,2,3-triazol-2-yl)pyridin-3-yl)-5-(trifluoromethyl)-1H-pyrazole-4-carboxamide], the IC50 is 692 nM in the experiment on OCI-Ly3 cells; 22 nM in experiment [1]; 50 nM in experiment [2]; 58 nM in experiment [3]; 1900 nM in the experiment on TMD8 cells.

As to `N#Cc1cc(NC(=O)c2cnn(-c3cccc4c(F)cccc34)c2C(F)(F)F)cnc1-n1nccn1` [Cpd 122, N-(5-cyano-6-(2H-1,2,3-triazol-2-yl)pyridin-3-yl)-1-(5-fluoronaphthalen-1-yl)-5-(trifluoromethyl)-1H-pyrazole-4-carboxamide], the IC50 in the experiment on OCI-Ly3 cells came out at 132 nM; in experiment [1], 13 nM; in experiment [2], 56 nM; in experiment [3], 52 nM; with TMD8 cells, 162 nM.

Take `Cc1cnn(-c2ncc(NC(=O)c3cnn(-c4cccc5ncccc45)c3C(F)(F)F)cc2Cl)n1` [Cpd 125, N-(5-chloro-6-(4-methyl-2H-1,2,3-triazol-2-yl)pyridin-3-yl)-1-(quinolin-5-yl)-5-(trifluoromethyl)-1H-pyrazole-4-carboxamide]: the IC50 is 285 nM in the experiment on OCI-Ly3 cells; 13 nM in experiment [1]; 24 nM in experiment [2]; 46 nM in experiment [3]; 1020 nM with TMD8 cells.

Take `O=C(Nc1cnc(-c2ncco2)c(Cl)c1)c1cnn(-c2cccc3c(=O)[nH]ccc23)c1C(F)(F)F` [Cpd 127, N-(5-chloro-6-(oxazol-2-yl)pyridin-3-yl)-1-(1-oxo-1,2-dihydroisoquinolin-5-yl)-5-(trifluoromethyl)-1H-pyrazole-4-carboxamide]: the IC50 in the experiment on OCI-Ly3 cells came out at 432 nM; in experiment [1], 15 nM; in experiment [2], 26 nM; in experiment [3] it was 29 nM; in the experiment with TMD8 cells, 11200 nM.

As to `N#Cc1cc(NC(=O)c2cnn(-c3ccc(N)c4ccccc34)c2C(F)(F)F)cnc1-n1nccn1` [Cpd 132, 1-(4-aminonaphthalen-1-yl)-N-(5-cyano-6-(2H-1,2,3-triazol-2-yl)pyridin-3-yl)-5-(trifluoromethyl)-1H-pyrazole-4-carboxamide], the IC50 was determined as 571 nM in the experiment on OCI-Ly3 cells; 19 nM in experiment [1]; 95 nM in experiment [2]; 141 nM in experiment [3]; 7760 nM in the experiment with TMD8 cells.

Take `O=C(Nc1cnc(-n2cc(CO)cn2)c(Cl)c1)c1cnn(-c2cccc3ncccc23)c1C(F)(F)F` [Cpd 135, N-(5-chloro-6-(4-(hydroxymethyl)-1H-pyrazol-1-yl)pyridin-3-yl)-1-(quinolin-5-yl)-5-(trifluoromethyl)-1H-pyrazole-4-carboxamide]: the IC50 in the experiment with OCI-Ly3 cells amounted to 1310 nM; in experiment [1], 21 nM; in experiment [2], 83 nM; in experiment [3] it was 98 nM; in the experiment with TMD8 cells it was 3090 nM.

Regarding `O=C(Nc1cnc(-n2nccn2)c(Br)c1)c1cnn(-c2cccc3ncccc23)c1C(F)(F)F` [Cpd 139, N-(5-bromo-6-(2H-1,2,3-triazol-2-yl)pyridin-3-yl)-1-(quinolin-5-yl)-5-(trifluoromethyl)-1H-pyrazole-4-carboxamide], the IC50 with OCI-Ly3 cells amounted to 275 nM; in experiment [1], 23 nM; in experiment [2], 36 nM; in experiment [3], 50 nM; in the experiment with TMD8 cells, 1410 nM.

On to `Nc1cnn(-c2ncc(NC(=O)c3cnn(-c4cccc5ncccc45)c3C(F)(F)F)cc2Cl)n1` [Cpd 154, N-(6-(4-amino-2H-1,2,3-triazol-2-yl)-5-chloropyridin-3-yl)-1-(quinolin-5-yl)-5-(trifluoromethyl)-1H-pyrazole-4-carboxamide], for which the IC50 with OCI-Ly3 cells came to 395 nM; in experiment [1] it was 19 nM; in experiment [2] it was 95 nM; in experiment [3], 98 nM; in the experiment on TMD8 cells, 2240 nM.

Consider `Nc1ncc(-n2ncc(C(=O)Nc3cnc(-n4nccn4)c(Cl)c3)c2C(F)(F)F)c2ccccc12` [Cpd 155, 1-(1-aminoisoquinolin-4-yl)-N-(5-chloro-6-(2H-1,2,3-triazol-2-yl)pyridin-3-yl)-5-(trifluoromethyl)-1H-pyrazole-4-carboxamide], for which the IC50 in the experiment with OCI-Ly3 cells is 302 nM; in experiment [1], 19 nM; in experiment [2], 68 nM; in experiment [3] it was 93 nM; with TMD8 cells, 1380 nM.

For the compound `Cn1ccc(-c2ncc(NC(=O)c3cnn(-c4cccc5c(=O)[nH]ccc45)c3C(F)(F)F)cc2Cl)n1` [Cpd 157, N-(5-chloro-6-(1-methyl-1H-pyrazol-3-yl)pyridin-3-yl)-1-(1-oxo-1,2-dihydroisoquinolin-5-yl)-5-(trifluoromethyl)-1H-pyrazole-4-carboxamide], the IC50 in the experiment with OCI-Ly3 cells turned out to be 1270 nM; in experiment [1], 23 nM; in experiment [2] it was 912 nM; in experiment [3], 1780 nM; with TMD8 cells, 7080 nM.

Regarding `O=C(Nc1cncc(C(F)(F)F)c1)c1cnn(-c2cccc3c(=O)[nH]ccc23)c1C(F)(F)F` [Cpd 167, 1-(1-oxo-1,2-dihydroisoquinolin-5-yl)-5-(trifluoromethyl)-N-(5-(trifluoromethyl)pyridin-3-yl)-1H-pyrazole-4-carboxamide], the IC50 amounted to 1020 nM with OCI-Ly3 cells; 110 nM in experiment [1]; 174 nM in experiment [2]; 191 nM in experiment [3]; 4570 nM with TMD8 cells.

`Cc1nc(-c2ccn(C)n2)c(Cl)cc1NC(=O)c1cnn(-c2cccc3c(=O)[nH]ccc23)c1C(F)(F)F` [Cpd 169, N-(5-chloro-2-methyl-6-(1-methyl-1H-pyrazol-3-yl)pyridin-3-yl)-1-(1-oxo-1,2-dihydroisoquinolin-5-yl)-5-(trifluoromethyl)-1H-pyrazole-4-carboxamide]: the IC50 in the experiment with OCI-Ly3 cells was found to be 1750 nM; in experiment [1], 72 nM; in experiment [2] it was 182 nM; in experiment [3], 166 nM; with TMD8 cells it was 8910 nM.

With `O=C(Nc1cc(Cl)c(-n2nccn2)cc1F)c1cnn(-c2cccc3c(=O)[nH]ccc23)c1C(F)(F)F` [Cpd 172, N-(5-chloro-2-fluoro-4-(2H-1,2,3-triazol-2-yl)phenyl)-1-(1-oxo-1,2-dihydroisoquinolin-5-yl)-5-(trifluoromethyl)-1H-pyrazole-4-carboxamide], the IC50 in the experiment on OCI-Ly3 cells was found to be 504 nM; in experiment [1], 69 nM; in experiment [2] it was 158 nM; in experiment [3], 204 nM; in the experiment on TMD8 cells, 4790 nM.

As to `Cc1nc(-n2nccn2)c(C#N)cc1NC(=O)c1cnn(-c2cccc3c(=O)[nH]ccc23)c1C(F)(F)F` [Cpd 176, N-(5-cyano-2-methyl-6-(2H-1,2,3-triazol-2-yl)pyridin-3-yl)-1-(1-oxo-1,2-dihydroisoquinolin-5-yl)-5-(trifluoromethyl)-1H-pyrazole-4-carboxamide], the IC50 is 1590 nM in the experiment with OCI-Ly3 cells; 45 nM in experiment [1]; 95 nM in experiment [2]; 117 nM in experiment [3]; more than 20000 nM with TMD8 cells.

As for `Nc1cnnn1-c1ncc(NC(=O)c2cnn(-c3cccc4c(=O)[nH]ccc34)c2C(F)(F)F)cc1Cl` [Cpd 178, N-(6-(5-amino-1H-1,2,3-triazol-1-yl)-5-chloropyridin-3-yl)-1-(1-oxo-1,2-dihydroisoquinolin-5-yl)-5-(trifluoromethyl)-1H-pyrazole-4-carboxamide], the IC50 is 2800 nM with OCI-Ly3 cells; 42 nM in experiment [1]; 427 nM in experiment [2]; 589 nM in experiment [3]; more than 20000 nM in the experiment with TMD8 cells.

As for `N#Cc1cnn(-c2ncc(NC(=O)c3cnn(-c4cccc5ncccc45)c3C(F)(F)F)cc2Cl)n1` [Cpd 179, N-(5-chloro-6-(4-cyano-2H-1,2,3-triazol-2-yl)pyridin-3-yl)-1-(quinolin-5-yl)-5-(trifluoromethyl)-1H-pyrazole-4-carboxamide], the IC50 was found to be 763 nM in the experiment with OCI-Ly3 cells; 42 nM in experiment [1]; 174 nM in experiment [2]; 288 nM in experiment [3]; 1950 nM in the experiment with TMD8 cells.

Values taken from US10954214B2 (Janssen Pharmaceutica NV, priority 2016, dated 2021).
